{"source": "patent US11331328B2", "about": "“Compositions and methods for inhibiting antiapoptotic Bcl-2 proteins as anti-aging agents” (priority 2014, dated 2022)", "key": {"[1]": {"tested_on": "non-senescent WI-38 cells (NC)", "experiment": "Cell viability (PI flow cytometry), LD50 in non-senescent WI-38 cells", "type": "cell-based, human", "details": "for CC50: WI-38 fibroblasts, non-senescent, LD50 by Probit Analysis, read-out: LD50 (μM) for non-senescent cells (NC)", "protocol": "Mouse embryonic fibroblasts (MEF) were isolated from mouse embryos as described^1. All cells were cultured in a complete medium (CM) (Dulbecco's Modified Eagle Medium supplemented with 10% fetal bovine serum [FBS], 100 U/ml penicillin, and 100 μg/ml streptomycin [all from Atlanta Biologicals, Norcross, Ga., and USA]) in a humidified incubator at 37° C. and 5% CO2. Low passages of WI-38 cells (<25), IMR-90 (<25), REC cells (<25) and MEF (<3) were used as non-senescent controls or for induction of senescence to avoid replicative senescence. […] To induce senescence by expression of oncogenic Ras (Ras^V12), WI-38 cells were infected with the retroviruses pBabe-H-Ras or pBabe-puro (control) (Addgene, Cambridge, Mass., UAS)^2, 3. […] Senescent cells were maintained in culture for a few days, changing the culture medium every 3 days until use. For in vitro cell culture experiments, we usually repeated the experiments for at least three times to ensure the reproducibility of the data. In addition, the repeats of the experiments for three times will allow us to obtain 3 independent observations for statistical analysis.\nFlow cytometry: Non-senescent and senescent cells were seeded into wells of 24- or 48-well at about 70% of confluence. […] Both quiescent non-senescent cells and permanently growth arrested senescent cells were treated with vehicle (0.1% DMSO or PBS) or increasing concentrations of the compounds listed in Table 1 for various durations. […] After incubated with propidium iodide (PI 100 ng/ml) in PBS at room temperature for 1 min, cells were centrifuged at 1200 rpm for 6 min and then resuspended in PBS with 2% of FBS for analysis by a BD LSR II flow cytometer (BD Biosciences, San Jose, Calif., USA). Viable cells (PI^− cells) were numerated by flow cytometry at a constant flow rate and calculated as a percentage of control cells treated with vehicle using the formula: percentage of control=(Ndrug/NC)×100, where Ndrug and NC represent the absolute number of PI^− viable cells of drug-treated and vehicle-treated cells, respectively.\nMTT (3-[4,5-dimethylthiazol-2-yl]-2,5 diphenyl tetrazolium bromide) assay: Cells were harvested, washed and resuspended in CM and added to wells of 24- or 48-well plates as described above. […] After 4 h at 37° C., the formazan was solubilized by lysing the cells with 300 μl of DMSO. Absorbance of formazan was measured at 595 nm using a Microplate Reader (BioTek, Winooski, Vt., USA). Cell viability was calculated in the method as previously described^4.\nTrypan blue exclusion assay: Cells were harvested, washed and resuspended in CM and added to wells of a 6-well plate as described above. […] Living cells stained negative for trypan blue and were counted under light microscopy.\nBriefly, Probit (set as y) was determined by looking up their correspondence to the % responded in Finney's table. The log of the compound concentrations was used as x. By fitting a line of regression, we produce the formula y=ax+b."}, "bone marrow HSCs": {"tested_on": "bone marrow HSCs", "experiment": "Single HSC culture clonogenic activity in vitro", "type": "cell-based, mouse", "details": "1.25 μM ABT263", "protocol": "Freshly prepared medium was added every 3 days, Two weeks later, the numbers of cells produced by each HSC were counted."}}, "note": "Read-outs that look alike come from different tables or passages of the source."}
{"smiles": "CC1(C)CCC(c2ccc(Cl)cc2)=C(CN2CCN(c3ccc(C(=O)NS(=O)(=O)c4ccc(N[C@H](CCN5CCOCC5)CSc5ccccc5)c(S(=O)(=O)C(F)(F)F)c4)cc3)CC2)C1", "note": "[ABT263, navitoclax]", "values": [{"measurement": "CC50", "setting": "[1]; Homo sapiens", "result": 12.6, "unit": "µM"}, {"measurement": "LD50", "setting": "[1]; Table 2, NC WI38 cells", "result": 12.60, "unit": "µM"}, {"measurement": "CC50", "setting": "[1]", "result": 12.60, "unit": "µM"}, {"measurement": "viable cells by MTT assay and trypan blue exclusion test", "setting": "[1]; non-senescent WI-38, increasing concentrations, 72 h", "result": "is not cytotoxic to non-senescent WI-38 cells"}, {"measurement": "clonogenicity of BM HSCs in vitro", "setting": "bone marrow HSCs; HSCs from control unirradiated mice", "result": "had little effect on the clonogenicity of BM HSCs from control unirradiated mice"}, {"measurement": "clonogenicity of BM HSCs in vitro", "setting": "bone marrow HSCs; HSCs from irradiated mice", "result": "markedly reduced the clonogenicity of BM HSCs from irradiated mice"}]}
